According to ChEMBL document CHEMBL2010754, “Unusual isomeric corniculatolides from mangrove, Aegiceras corniculatum” (J Nat Prod, 2012):
The source made the active and inactive calls.

Legend:
Type in all cases: functional, organism-based
Staphylococcus aureus = assay: Antibacterial activity against Staphylococcus aureus by agar diffusion method
Bacillus subtilis = assay: Antibacterial activity against Bacillus subtilis by agar diffusion method
Micrococcus luteus = assay: Antibacterial activity against Micrococcus luteus by agar diffusion method
Escherichia coli = assay: Antibacterial activity against Escherichia coli by agar diffusion method
Klebsiella pneumoniae = assay: Antibacterial activity against Klebsiella pneumoniae by agar diffusion method
Aspergillus niger = assay: Antifungal activity against Aspergillus niger by agar diffusion method
Aspergillus terreus = assay: Antifungal activity against Aspergillus terreus by agar diffusion method
Aspergillus flavus = assay: Antifungal activity against Aspergillus flavus by agar diffusion method

Measured: Activity

COc1c(O)cc2cc1Oc1ccc(cc1)CCCOC(=O)CC2
inactive: Staphylococcus aureus | Bacillus subtilis | Micrococcus luteus | Escherichia coli | Klebsiella pneumoniae | Aspergillus niger | Aspergillus terreus | Aspergillus flavus

O=C1CCc2ccc(cc2)Oc2cc(ccc2O)CCCO1
inactive: Staphylococcus aureus | Bacillus subtilis | Micrococcus luteus | Escherichia coli | Klebsiella pneumoniae | Aspergillus niger | Aspergillus terreus | Aspergillus flavus

COc1ccc2cc1Oc1ccc(cc1)CCCOC(=O)CC2
inactive: Staphylococcus aureus | Bacillus subtilis | Micrococcus luteus | Escherichia coli | Klebsiella pneumoniae | Aspergillus niger | Aspergillus terreus | Aspergillus flavus

COc1ccc2cc1Oc1ccc(cc1)CCC(=O)OCCC2
inactive: Staphylococcus aureus | Bacillus subtilis | Micrococcus luteus | Escherichia coli | Klebsiella pneumoniae | Aspergillus niger | Aspergillus terreus | Aspergillus flavus

O=C1CCc2ccc(O)c(c2)Oc2ccc(cc2)CCCO1
inactive: Staphylococcus aureus | Bacillus subtilis | Micrococcus luteus | Escherichia coli | Klebsiella pneumoniae | Aspergillus niger | Aspergillus terreus | Aspergillus flavus
